Data on five molecules can be found in patent US12673918B2, “Small molecule RPN13 inhibitors with antitumor properties” (The Johns Hopkins University, priority 2019, dated 2026).

Data set [1] has as its system SSC25. The experiment in a line: MTT cytotoxicity assay, SSC25. In kind it is cell-based. The conditions noted are these: Table 3, 48 hr, Head & Neck (HPV −ve).
Description: Cell lines and cytotoxicity assays: All cell lines were obtained from the American Type Culture Collection (ATCC) and cultured in the specified medium supplemented with 10% fetal bovine serum, 100 IU/mL penicillin, and 100 μg/mL streptomycin at 37° C. in a humidified 5% CO2/95% air incubator. […] To assess drug cytotoxicity, cells were seeded at 2,500 cells/well (10,000 cells/well for MM lines) in 100 μL medium in 96-well plate and after 24 treated with compounds for 72 h, incubated according to the manufacturer's protocol with the Thiazolyl Blue Tetrazolium Bromide (Sigma, M2128) and A570 measured using a Benchmark Plus microplate spectrophotometer (BIO-RAD). IC50 data was analyzed by Graphpad Prism software.
Data set [2] relates to C33A. The experiment in a line: MTT cytotoxicity assay, C33A. The data set is classed as cell-based. The conditions noted are these: Homo sapiens, C-33-A, Table 3, 48 hr, Cervical (HPV −ve). On the technique in general: Formazan colour is commonly taken as a measure of viable cells.
Description: (§2) The cytotoxic efficacy of selected compounds was assessed against multiple myeloma (MM) cell lines, as this is a validated clinical target for the licensed proteasome inhibitors.
(§3) Cell lines and cytotoxicity assays: All cell lines were obtained from the American Type Culture Collection (ATCC) and cultured in the specified medium supplemented with 10% fetal bovine serum, 100 IU/mL penicillin, and 100 μg/mL streptomycin at 37° C. in a humidified 5% CO2/95% air incubator. […] To assess drug cytotoxicity, cells were seeded at 2,500 cells/well (10,000 cells/well for MM lines) in 100 μL medium in 96-well plate and after 24 treated with compounds for 72 h, incubated according to the manufacturer's protocol with the Thiazolyl Blue Tetrazolium Bromide (Sigma, M2128) and A570 measured using a Benchmark Plus microplate spectrophotometer (BIO-RAD). IC50 data was analyzed by Graphpad Prism software. In the chirality studies the cells were treated with compounds for 48 h, and the cells were incubated and measured via the preceeding protocols.
A short description of data set [3]: Initial toxicity testing in female Balb/c mice. The data set is classed as in vivo. The protocol: Initial toxicity testing was performed in female Balb/c mice with RA375. Groups of mice (n=3) were injected intra peritoneally (i.p.) with a single dose of RA375 (5, 10, 20, 40, 60, 100 mg/Kg in 25% β-hydroxypropyl cyclodextrin) and endpoints evaluated included clinical observation and body weight for one week.

For data set [4], the system named is HeLa cells. The experiment in a line: XTT cytotoxicity assay, HeLa. The conditions noted are these: Homo sapiens, HeLa, read-out: IC50 HeLa. In kind it is cell-based, human. The source says:
The impact of substituents of the aromatic ring on the potency of molecules was also examined. The presence of either an electron withdrawing group (EWG) or an electron donating group (EDG) influences the reactivity of a Michael acceptor towards the target protein but can also impact specificity/selectivity.

Data set [5] has as its system JHU11. The experiment in a line: MTT cytotoxicity assay, JHU11. In kind it is cell-based. The conditions noted are these: Table 3, 48 hr, Head & Neck (HPV −ve).
Description: as §2, §3
Data set [6] deals with A2780. As to conditions: human.
Data set [7] concerns HT3. The experiment in a line: MTT cytotoxicity assay, HT3. The data set is classed as cell-based. The conditions noted are these: Homo sapiens, HT-3, Table 3, 48 hr, Cervical (HPV −ve).
Description: as §2, §3
The subject of data set [8] is ID8-vegf. As to conditions: mouse.
Data set [9] deals with ES2 cells. The experiment in a line: Seahorse mitochondrial stress test, ES2 cells. In kind it is cell-based, human.
Description: During the mitochondrial stress test, baseline OCR measurements were followed by the addition of the compound oligomycin to measure ATP-linked respiration. Upon addition of the uncoupler FCCP, maximal respiration is measured. […] At the end of the assay, a mix of rotenone and antimycin A was injected to provide a measure of non-mitochondrial respiration. […] To determine the impact of RA413S on glycolysis, ES2 cells were incubated in medium without glucose or pyruvate and the baseline ECAR was measured. Addition of glucose allows the measurement of the glycolysis rate. This was followed by the injection of oligomycin which inhibits mitochondrial ATP production and shifts the energy production to glycolysis. The consequent rise in ECAR measures the cellular maximum glycolytic capacity.
Seahorse Assay: For quantification of oxygen consumption rate, ES2 cells were seeded at 20,000 cells per well in Seahorse XF96 Analyzer plates in regular media and incubated at 37° C. with 5% CO2 overnight. […] The plate was then loaded into the Seahorse machine and readings of oxygen and pH levels were taken before and after injections of 3 μM oligomycin, 4 μM FCCP, 2 μM antimycin, and 2 μM rotenone. Oxygen consumption rate and extracellular acidification rate were analyzed using Wave 2.4 software.
For data set [10], the system named is ID8-VegfDefb29 tumor. Put plainly: in vivo. In kind it is in vivo, C57BL/6 mice. The protocol:
To assess therapeutic efficacy the ID8-VegfDefb29 cell line was utilized in a syngeneic mouse model of ovarian cancer expressing luciferase (62). ID8 was first derived from spontaneous malignant transformation of C57BL/6 mouse ovarian surface epithelial cells in vitro (69). ID8-Vegf Defb29 cells represent a more aggressive variant of ovarian cancer in which VEGF provides vascular growth which is augmented by the presence of DEFB29 (62). C57BL/6 mice were injected i.p. with ID8-VegfDefb29 cells stably expressing firefly luciferase (0.5×10^6 cells) in PBS (100 μL). After 72 hrs, mice were imaged for their basal luminescence levels using an IVIS200 imager. Mice with visible luminescence were randomized into equal groups including vehicle (n=8), RA414 (3 mg/Kg, n=8), RA414 (10 mg/Kg, n=8) and treated every three days for up to 3 weeks. Mice were imaged every week to measure bioluminescence expressed by tumor after administration of luciferin. […] On day 24 two mice were sacrificed after collection of ascites, and the remainder required euthanasia on day 31 (FIGS. 17A and 17B). Administration of RA414 at 10 mg/kg (3 doses delivered every three days) regressed the tumor completely in 50% of the mice with less than 10% weight loss. […] This is consistent with proteasome inhibition within the ascites cells by the […] RA414 treatment regimen.
(§1) Tumor Studies: Female C57BL6 or Nude mice were inoculated with 10^6 ES2-Luciferase cells i.p. in 100 uL PBC, or ID8-VegfDefb29 syngeneic mouse model of ovarian cancer expressing luciferase (62) i.p. in 100 μL PBS. At day 3, mice were imaged for basal level luminescence activity with a Xenogen IVIS 200 after injection i.p. with luciferin (0.3 mg in 100 water). Mice were randomized into two groups (n=8) and treated i.p. with compounds or vehicle (25% (w/v) β-Hydroxypropylcyclodextrin in water), and imaged again on days 7 and 14. RA375 was administered i.p. at 10 mg/Kg.

Data set [11] concerns VU93.
In data set [12] the test system is MCF7. As to conditions: human.
For data set [13], the system named is OVCAR3. As to conditions: human.
The test system of data set [14] is ES2-luc xenograft. The experiment in a line: ES2-luc intraperitoneal xenograft in nude mice. In kind it is in vivo. The conditions noted are these: 10 mg/Kg every 3 days, total 12 doses. Here is the method:
ES2 is a human cell line derived from a high grade ovarian clear cell carcinoma (42). The efficacy of RA375 against the ES2 xenograft model expressing luciferase (ES2-luc) was tested. Nude female mice were inoculated with ES2-luc cells into the peritoneal cavity. After 3 days the mice were imaged for their basal luminescence activity and randomized into two groups (n=8). […] Mice were imaged after the first and second week of treatment for their luciferase activity to assess tumor burden.
Briefly, female nude mice were injected interperitoneally (i.p.) with ES2-luc cells (1×10^6) in 100 μL PBS and the basal luminescence was measured after three days using IVIS 200 imaging after injecting luciferin. […] Over the treatment period mice were imaged every week for bioluminescence to monitor tumor growth.
as §1

For data set [15], the system named is C2KmFvB1. The experiment in a line: MTT cytotoxicity assay, C2KmFvB1. As to conditions: read-out: cytotoxicity IC50 C2KmFvB1, Tables 3A/4B/4C, BRCA2 + Ve.
Data set [16] deals with NF-κB. As to conditions: 293T cells stably expressing NFkB-Luc reporter; previously observed (13); read-out: IC50 of NF-κB signaling inhibition; cited from earlier work.
The conditions of data set [17]: PEG400: Cremophor: Tween40 vs b-HPCD.
[18] abbreviates: 3 mg/Kg, 9 doses delivered every three days.

Consider `O=C(CCl)N[C@@H](Cc1ccccc1)C(=O)N1C/C(=C\c2ccc([N+](=O)[O-])cc2)C(=O)/C(=C/c2ccc([N+](=O)[O-])cc2)C1` [RA375], for which the IC50 is 189 nM in data set [1]; 167 nM in data set [2]; 13 nM in data set [4]; 178 nM in data set [5]; 37 nM in data set [6]; 162 nM in data set [7]. In data set [8], this molecule gave an IC50 of 44 nM. The “toxicity after repeated dosing” value in data set [3] (40 mg/Kg on alternate days for two weeks) is “no observable toxicities or weight loss”. For the same molecule, the “adverse effects after single dose” value in data set [3] (female Balb/c, single i.p. dose 5-100 mg/Kg, one week observation) was “No adverse effects were noted”.

For `C[C@H]1/C(=C\c2ccc([N+](=O)[O-])cc2)C(=O)/C(=C/c2ccc([N+](=O)[O-])cc2)CN1C(=O)[C@@H](N)Cc1ccccc1`, the “decrease of ATP production” value in [9] (ES2, 12 hr, 100 nM) is roughly 4 fold. The maximal respiration entry in data set [9] (ES2, relative to vehicle or RA414-treated groups) is recorded as “significantly reduced”. Moreover, the “tumor burden compared to vehicle” value in data set [10] (15 mg/Kg every 3 days, total 5 doses, day 17, p<0.0001) was “significant decrease in tumor burden”. Further, the IC50 in [11] stood at 100 nM; in data set [6], 20 nM; in [12] it was 250 nM; in data set [13], 69 nM. Moreover, the survival result in data set [14] is listed as “significantly increased survival”. Further, in data set [14], the “tumor burden (bioluminescence)” value is “significantly reduced tumor burden”.

Consider `N[C@@H](Cc1ccccc1)C(=O)N1C/C(=C\c2ccc(Cl)c(Cl)c2)C(=O)/C(=C/c2ccc(Cl)c(Cl)c2)C1` [RA190, reference compound], for which the IC50 in data set [15] amounted to 436 nM.

Take `N[C@@H](Cc1ccccc1)C(=O)N1C/C(=C\c2ccc([N+](=O)[O-])cc2)C(=O)/C(=C/c2ccc([N+](=O)[O-])cc2)C1` [RA183, reference compound]: the IC50 in [16] is 100 nM.

In the case of `CC1/C(=C\c2ccc([N+](=O)[O-])cc2)C(=O)/C(=C/c2ccc([N+](=O)[O-])cc2)CN1C(=O)[C@H](Cc1ccccc1)NC(=O)CCl` (stereo partly shown) [RA414], in data set [17], the “solubility in formulation vehicles” value is “soluble in the PEG system only”. Further, in data set [10] (setting [18]), the tolerability entry is “well tolerated” and the tumor growth entry was “inhibited tumor growth”. In data set [10] (10 mg/kg, 3 doses delivered every three days), the “mice with tumor regressed completely” value is reported as 50%. In data set [10] (10 mg/kg, 3 doses delivered every three days, tumor-bearing mice), the “mice that did not tolerate the dose (>10% weight loss) or died” value is on record as 50%.
